Source: patent US20140113958A1, “HCV Combination Therapy” (priority 2011, published 2014)
Entries after “also recorded” stand apart in the source; their conditions may differ. Like-named read-outs stand apart in the source and are kept apart here.

How the values were obtained:
Huh-luc/neo-ET cells = assay: Cellular toxicity by XTT dye reduction in Huh-luc/neo-ET cells
Method: The anti-viral efficacy and cellular toxicity of non-transfected antimiR oligonucleotide in combination with approved and experimental anti-HCV therapeutics (e.g. NM283, 2′-C-methylcytidine, and/or VX-222) (or other NS5B polymerase inhibitors) was determined in the reporter cell line Huh-luc/neo-ET. This cell line harbors the persistently replicating I389luc-ubi-neo/NS3-3′/ET replicon containing the firefly luciferase gene-ubiquitin-neomycin phosphotransferase fusion protein and EMCV IRES driven NS3-5B HCV coding sequences containing the ET tissue culture adaptive mutations (E1202G, T1208I, and K1846T). Eight dilutions of non-transfected antimiR oligonucleotide (bracketing the calculated EC50) were evaluated in triplicate on duplicate sets of three plates with five dilutions of each of the control compounds (bracketing the calculated EC50). One set of plates was used for the determination of cellular toxicity and the other set of plates was used for the determination of anti-viral efficacy. The efficacy and toxicity results was quantified with firefly luciferase activity and XTT dye reduction, respectively, and the results of the assay is imported into the Prichard and Shipman MacSynergy II software program. The MacSynery II analysis includes calculation of the dose response of the two (or more) compounds when used alone followed by calculation of the expected additive level of antiviral inhibition or toxicity when the compounds are used together based on the individual dose response curves. The expected level of activity at each of the concentration data points was compared to the experimentally determined antiviral activity in the assay. The expected activity was subtracted from the realized activity, yielding a negative, zero or positive value. These values are plotted as a three dimensional representation of the data and the result is reported as a two-factor value, expressing the combined average above the expected level of activity (synergy volume) and the combined average below the expected level of activity (antagonism volume). Combination analysis was performed two or more times for each pair of test compound and control substance.
The reporter cell line Huh-luc/neo-ET was obtained from Dr. Ralf Bartenschlager (Department of Molecular Virology, Hygiene Institute, University of Heidelberg, Germany) by ImQuest BioSciences. This cell line harbors the persistently replicating 1389luc-ubi-neo/NS3-3′IET replicon containing the firefly luciferase gene-ubiquitinneomycin phosphotransferase fusion protein and EMCV IRES driven NS3-5B HCV coding sequences containing the ET tissue culture adaptive mutations (E 1202G, T12081, and KI846T). A stock culture of the Huh-luc/neo-ET was expanded by culture in DMEM supplemented with 10% FBS, 2 mM glutamine, penicillin (100 IU/mL)/streptomycin (100 f·Ig/mL) and IX nonessential amino acids plus I mg/ml G418. Prior to plating, the cells were split 1:4 and cultured for two passages in the same medium plus 250 f·Ig/mL G418. The cells were treated with trypsin and enumerated by staining with trypan blue and seeded into 96-well tissue culture plates at a cell culture density 5.0×10^3 cells per well in a volume of 85 f·IL per well and incubated at […] in an environment of 5% CO2 for 24 hours. Six plates were established for the determination of combination efficacy (EC50) and cytotoxicity (TC50) for each of the compound combinations (three plates each for efficacy and toxicity). […]

all HCV genotypes = assay: Activity against HCV genotypes in vitro; assay type: cell-based
[1] = tested on: Huh-luc/neo-ET HCV genotype Ib replicon cells; assay type: cell-based; details: for rate of cell expansion / resistant clonal populations: selection with G418, 28 days; for resistant clonal populations: crystal violet
Method: Cell culture and Assay setup: The reporter cell line Huh-luc/neo-ET was obtained and prepare as described previously. Cells were plated into 10 cm tissue culture dishes at a density of 3×10^5 cells per plate in culture medium containing 250 μg/ml G418 and incubated for 24 hours at 37° C. in an environment of 5% C02. Following the 24 hour incubation, dilutions of SPC3649, SPC4729, or telaprevir were prepared in cell culture medium (as above) with 750 μg/ml G418. Each of the dilutions was added to duplicate plates and the plates were incubated at 37° C. in an environment of 5% CO^2. Two additional plates received cell culture medium with 750 μg/ml G418 as a no-treatment control. […] The final concentration of SPC4729 was 10.0 μM. […] Following 28 days of passage, one set of dishes was stained with crystal violet and the other set of plates was utilized for expansion and establishment of resistant cell culture stocks.
Huh-luc/neo-ET HCY genotype Ib replicon cells were cultured under selective pressure in the presence of 750 μg/mL G4 I8 with and without four independent fixed concentrations of SPC3649 anti-miR oligonucleotide, or telaprevir, or one concentration of scrambled oligonucleotide SPC4729 for 28 days in tissue culture plates. Duplicate tissue culture dishes were established and maintained for each culture condition. Medium was replaced bi-weekly during the 28 days of culture and the cells were split at the time of medium replenishment to maintain a confluent cell culture monolayer. Following four weeks in culture, cells were either fixed with methanol and stained with crystal violet or expanded for subsequent phenotypic and genotypic characterization.

HCV genotype 1 = assay: Phase 2a clinical trial, miravirsen monotherapy; assay type: in vivo, human; details: for mean of the maximum HCV RNA decline from baseline: 5 weekly doses subcutaneously over 29 days, chronic HCV genotype 1 patients
Method: Thirty-six treatment-naïve chronic HCV genotype 1 infected patients were enrolled into 3 sequential dosing cohorts and received 5 weekly doses of miravirsen 3, 5, or 7 mg/kg (n=27) or placebo (n=9) subcutaneously over 29 days and were followed up until week 18.

[2] = chronic HCV genotype 1 infected patients
[3] = in combination with ribavirin, 95% confidence level
[4] = second drug in combination with miravirsen (SPC3649), 95% confidence interval, median or individual values

Compound: 5′-^mCs^ocsAs^otstsGs^oTs^ocsas^mCs^oas^mCs^ots^mCs^omC^o-3′ (CCATTGTCACACTCC; all phosphorothioate, sugars by position and methylation of C not given here; further chemistry not fully specified) [miravirsen]
- CC50 (Huh-luc/neo-ET cells; read-out: CC50 (+/−SD), tested alone): > 158 µM
- activity against HCV genotypes in vitro (all HCV genotypes): activity against all HCV genotypes in vitro; also recorded: effective against all HCV genotypes in vitro
- rate of cell expansion [1]: decrease in the rate of cell expansion
- resistant clonal populations ([1]; listed as SPC3649): failed to produce distinct individual resistant clonal populations; also recorded: distinct individual resistant clonal populations were not produced
- mean of the maximum HCV RNA decline from baseline (HCV genotype 1; 3 mg/kg): 1.2 log10IU/mL
- patients who achieved undetectable HCV RNA (HCV genotype 1; 5 mg/kg cohort): One
- mean of the maximum HCV RNA decline from baseline (HCV genotype 1; 5 mg/kg): 2.9 log10IU/mL
- patients who achieved undetectable HCV RNA (HCV genotype 1; 7 mg/kg cohort): four
- mean of the maximum HCV RNA decline from baseline (HCV genotype 1; 7 mg/kg): 3.0 log10IU/mL
- dose-limiting adverse events (HCV genotype 1; 3, 5 or 7 mg/kg): no dose-limiting adverse events
- escape mutations in the HCV genome miR-122 binding sites (HCV genotype 1; 3, 5 or 7 mg/kg): no escape mutations were observed
- emergence of viral resistance (HCV genotype 1; [2]): not seen
- reduction in HCV RNA (HCV genotype 1; [2]): prolonged dose-dependent reductions in HCV RNA levels
- safety and tolerability (HCV genotype 1; [2]): safe, well-tolerated
- reduction in HCV RNA (HCV genotype 1; chronic HCV genotype 1 infected patients, listed as Miravirsen): dose-dependent reduction in HCV RNA that was prolonged well beyond the end of active therapy
- HCV titre (HCV genotype 1; four week clinical trial to assess safety and tolerability): below detection

Compound: CCC[C@H](NC(=O)[C@@H]1[C@H]2CCC[C@H]2CN1C(=O)[C@@H](NC(=O)[C@@H](NC(=O)c1cnccn1)C1CCCCC1)C(C)(C)C)C(=O)C(=O)NC1CC1 [Telaprevir, (1S,3aR,6aS)-2-[(2S)-2-[[(2S)-2-Cyclohexyl-2-(pyrazine-2-carbonylamino)acetyl]amino]-3,3-dimethylbutanoyl]-N-[(3S)-1-(cyclopropylamino)-1,2-dioxohexan-3-yl]-3,3a,4,5,6,6a-hexahydro-1H-cyclopenta[c]pyrrole-1-carboxamide]
- impact of combination on in vitro cytotoxicity (Huh-luc/neo-ET cells; in combination with ribavirin): antagonistic interaction
- Cytotoxicity, Antag Vol (Huh-luc/neo-ET cells; [3]): −50.9 μM^2%
- Cytotoxicity, Synergy vol (Huh-luc/neo-ET cells; [3]): 0.00 μM^2%
- Cytotoxicity, Antagonism vol (Huh-luc/neo-ET cells; [4]): −5.05 μM^2%
- Cytotoxicity, Synergy vol (Huh-luc/neo-ET cells; [4]): 0 μM^2%
- Cell split ratio ([1]; 1.50 μM plus G418, day 15): N.S.
- Cell split ratio ([1]; 1.50 μM plus G418, day 22): N.S.
- Cell split ratio ([1]; 3.00 μM plus G418, day 15): N.S.
- Cell split ratio ([1]; 3.00 μM plus G418, day 18): N.S.
- Cell split ratio ([1]; 3.00 μM plus G418, day 22): N.S.
- Cell split ratio ([1]; 3.00 μM plus G418, day 25): N.S.
- Cell split ratio ([1]; 6.00 μM plus G418, day 11): N.S.
- Cell split ratio ([1]; 6.00 μM plus G418, day 15): N.S.
- Cell split ratio ([1]; 6.00 μM plus G418, day 18): N.S.
- Cell split ratio ([1]; 6.00 μM plus G418, day 22): N.S.
- Cell split ratio ([1]; 6.00 μM plus G418, day 25): N.S.
- rate of cell expansion [1]: dose-dependent decrease in the rate of cell expansion
- resistant clonal populations [1]: production of distinct individual resistant clonal populations
